# ± gives the standard deviation of the averaged measurements.
# Tests used:
# Settings in all cases: 72 h
# Caco-2 [1] = test: cell viability relative to DMSO; higher = less toxic
# Calu-3 [2] = test: as above
# HepG2 [3] = test: as above
# U2OS [4] = test: as above
# Vero E6 [5] = test: as above
# Caco-2 [6] = test: relative viability EC50 (midpoint between 100% and the lowest measured viability); higher = less toxic
# Calu-3 [7] = test: as above
# HepG2 [8] = test: as above
# U2OS [9] = test: as above
# Vero E6 [10] = test: as above
# Caco-2 [11] = test: drug sensitivity score (DSS) for viability; higher = more toxic; extreme values may be limits of the assay
# Calu-3 [12] = test: as above
# HepG2 [13] = test: as above
# U2OS [14] = test: as above
# Vero E6 [15] = test: as above
Compound,cell viability (Caco-2 [1]; 1 nM),cell viability (Caco-2 [1]; 10 nM),cell viability (Caco-2 [1]; 100 nM),cell viability (Caco-2 [1]; 1000 nM),cell viability (Caco-2 [1]; 10000 nM),cell viability (Calu-3 [2]; 1 nM),cell viability (Calu-3 [2]; 10 nM),cell viability (Calu-3 [2]; 100 nM),cell viability (Calu-3 [2]; 1000 nM),cell viability (Calu-3 [2]; 10000 nM),cell viability (HepG2 [3]; 1 nM),cell viability (HepG2 [3]; 10 nM),cell viability (HepG2 [3]; 100 nM),cell viability (HepG2 [3]; 1000 nM),cell viability (HepG2 [3]; 10000 nM),cell viability (U2OS [4]; 1 nM),cell viability (U2OS [4]; 10 nM),cell viability (U2OS [4]; 100 nM),cell viability (U2OS [4]; 1000 nM),cell viability (U2OS [4]; 10000 nM),cell viability (Vero E6 [5]; 1 nM),cell viability (Vero E6 [5]; 10 nM),cell viability (Vero E6 [5]; 100 nM),cell viability (Vero E6 [5]; 1000 nM),cell viability (Vero E6 [5]; 10000 nM),relative viability EC50 (Caco-2 [6]),relative viability EC50 (Calu-3 [7]),relative viability EC50 (HepG2 [8]),relative viability EC50 (U2OS [9]),relative viability EC50 (Vero E6 [10]),drug sensitivity score (Caco-2 [11]),drug sensitivity score (Calu-3 [12]),drug sensitivity score (HepG2 [13]),drug sensitivity score (U2OS [14]),drug sensitivity score (Vero E6 [15])
CC(C)NCC(O)COc1ccc(COCCOC(C)C)cc1 (stereo not given) [bisoprolol],91.3%,95.8%,103%,100%,99.2%,95.5%,103%,108%,97.8%,108%,104%,98.9%,91.2%,103%,90.6%,93.6%,94%,101%,95%,103%,92%,98.3%,93.3%,104%,107%,> 10 µM,> 10 µM,> 10 µM,> 10 µM,> 10 µM,0,0,0,0,0
c1ccc2c(c1)[I+]c1ccccc1-2 [diphenyleneiodonium],92.9%,97.3%,72.3%,61.9%,37%,92.6%,94.5%,78.8%,69.1%,44.9%,110%,87.7%,14.9%,8.2%,2.4%,95.4%,95.1%,64.8%,39.3%,20.7%,94.9%,95%,65.9%,38.9%,25.1%,0.251 µM,0.308 µM,0.0322 µM,0.16 µM,0.137 µM,10.8,8.6,29.3,16,15.8
C[C@H]1CC[C@H](n2c3cnccc3c3cnc(Nc4ccc5c(n4)CCN(C(=O)CO)C5)nc32)CC1 [AMG-925],112%,95.5%,96.4%,95.3%,91.3%,95.1%,109%,100%,109%,93%,105%,90.3%,113%,100%,101%,98.8%,100%,97.1%,99.4%,96.7%,99.6%,92.8%,96.1%,95.9%,104%,> 10 µM,> 10 µM,> 10 µM,> 10 µM,> 10 µM,0,0,0,0,0
CCC[C@H](Nc1nc(-c2ccc(NC(=O)NCC)c(OC)c2)ncc1C)c1cccnc1 [CYT-997],97.9%,93.5%,84%,42.6%,38.2%,99.4%,96%,54.4%,37%,37.5%,101%,106%,51.8%,36.3%,33.3%,97.2%,102%,45.6%,19.1%,18.2%,95.7%,100%,98.5%,22%,23.7%,0.198 µM,0.0547 µM,0.0687 µM,0.0761 µM,0.303 µM,12.4,17.4,17.9,21.3,14.4
OC[C@H]1NCC[C@@H](O)[C@@H]1O [fagomine],89%,91.9%,93.8%,87.2%,87.9%,111%,103%,97%,104%,99.8%,98.9%,97.4%,93.3%,90.2%,94.6%,97.9%,100%,93.8%,97.1%,94.8%,95.6%,93.5%,93.1%,94.5%,92.7%,> 10 µM,> 10 µM,> 10 µM,> 10 µM,> 10 µM,0.3,0,0,0,0
Cn1c(C#N)ccc1-c1ccc2c(c1)C(C)(C)OC(=S)N2 [tanaproget],98%,101%,100%,94.8%,75.4%,105%,106%,101%,108%,88.9%,106%,109%,95.8%,87%,24.7%,102%,103%,102%,103%,94.9%,102%,103%,98.2%,105%,107%,> 10 µM,> 10 µM,1.86 µM,> 10 µM,> 10 µM,1.7,0,6.3,0,0
CN[C@H](CC(=O)O)C(=O)O [NMDA],101%,97.5%,103%,103%,88%,85.4%,88.6%,87.7%,105%,89.4%,99.9%,102%,110%,104%,102%,95.1%,96.8%,91.7%,102%,91.5%,107%,107%,104%,99.5%,107%,> 10 µM,> 10 µM,> 10 µM,> 10 µM,> 10 µM,0,0,0,0,0
CC(=O)NCC(=O)N1[C@@H]2CC[C@H]1c1ccc(Nc3ncc(C(F)(F)F)c(NC4CCC4)n3)cc12,95.9%,89.2%,101%,79.3%,40.7%,101%,97.7%,99.4%,121%,83%,93.8%,99.6%,84.6%,62.4%,3.4%,98.6%,97.4%,94.4%,67.3%,2.9%,92.6%,98.6%,96.6%,82.1%,46%,1.28 µM,> 10 µM,1.27 µM,1.37 µM,1.39 µM,6.2,0.1,9.7,9.6,5.2
CCOC1O[C@H]([C@@H](COCc2ccccc2)OCc2ccccc2)[C@H](OCc2ccccc2)[C@H]1O (stereo not given in full) [tribenoside],93%,96.2%,90.3%,95.6%,94%,93.5%,94.6%,102%,105%,106%,91.4%,104%,93.6%,92.6%,94.2%,93.9%,96.3%,101%,97.3%,98%,91.6%,94.8%,91.6%,93.7%,111%,> 10 µM,> 10 µM,> 10 µM,> 10 µM,> 10 µM,0,0,0,0,0
CC(CNS(=O)(=O)C(C)C)c1ccc(-c2ccc(C#N)cc2)cc1 (stereo not given),98%,106%,97.7%,104%,80.8%,93.8%,97.6%,102%,108%,90.4%,111%,117%,104%,98.9%,30.5%,103%,102%,99.2%,101%,85.8%,109%,99.9%,106%,97.7%,98.6%,> 10 µM,> 10 µM,3.06 µM,> 10 µM,> 10 µM,0.4,0,4,0.1,0
CCCCc1ccc(O)cc1O [rucinol],102%,95.3%,83.5%,114%,106%,101%,98%,83.4%,102%,83.8%,110%,87.5%,107%,92.5%,81.5%,101%,99%,99.8%,104%,96.7%,111%,84.9%,106%,91.8%,103%,> 10 µM,> 10 µM,> 10 µM,> 10 µM,> 10 µM,0,0.1,1.3,0,0
Cc1ncc(CN2CC=C(c3ccccc3)CC2)c(N)n1 [Ro-10-5824],102%,105%,96.8%,97.1%,96.8%,103%,95.6%,103%,99.5%,99.5%,91.8%,104%,108%,115%,112%,101%,95.3%,102%,95.8%,96.9%,92.7%,108%,88.5%,99.2%,108%,> 10 µM,> 10 µM,> 10 µM,> 10 µM,> 10 µM,0,0,0,0,0
O=C1N(c2ccccc2)c2ccccc2C1(Cc1ccncc1)Cc1ccncc1 [linopirdine],91.4%,93.2%,88.3%,98.8%,93.1%,92.4%,98.5%,98.9%,103%,97.2%,111%,102%,94.9%,105%,102%,94.6%,101%,98.7%,103%,98.7%,106%,97.3%,106%,96.9%,99.2%,> 10 µM,> 10 µM,> 10 µM,> 10 µM,> 10 µM,0,0,0,0,0
[N-]=[N+]=N[C@]1(CO)O[C@@H](n2ccc(N)nc2=O)[C@H](O)[C@@H]1O [R-1479],98.2 ± 3.6%,96.2 ± 4%,90.7%,98.6 ± 11%,96.7 ± 9.1%,91.35 ± 0.78%,99.5 ± 4.4%,102.8 ± 0.78%,100 ± 2.3%,93 ± 1.5%,112 ± 7.2%,94.25 ± 0.92%,98.3 ± 2.8%,94.7 ± 1.7%,96.2 ± 3.6%,98 ± 0.85%,102 ± 2.8%,102 ± 1.3%,105 ± 2.5%,100 ± 0.14%,99 ± 3.8%,96.4 ± 1.7%,97.8 ± 1.7%,94.5 ± 2.8%,103 ± 6.7%,> 10 µM,> 10 µM,> 10 µM,> 10 µM,> 10 µM,0,0,0,0,0
CCNC(=O)N1CCN(CCCC(c2ccc(F)cc2)c2ccc(F)cc2)CC1 [amperozide],96.5%,96.6%,85.6%,94.1%,81.4%,97.6%,103%,95.7%,106%,94.4%,98.5%,102%,91.9%,103%,93.7%,97.5%,103%,94.4%,100%,95.3%,98.7%,98.6%,100%,99.2%,94.1%,> 10 µM,> 10 µM,> 10 µM,> 10 µM,> 10 µM,1,0,0,0,0

# From the supplement of paper PMC13380429
